Measured values: ChEMBL document CHEMBL1201862, “PubChem BioAssay data set” (2004)
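Dose response: 5 concentrations. Exposure: 48 h. Format: 96-well plates. Endpoint: linear interpolation; highest concentration if not reached. Here, GI50 denotes the concentration required for 50% inhibition of growth.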 Activity calls are given as the source filed them. Cut-off read from the data, not from the text of the source: active = GI50 up to about 1.1 µM and inactive = higher. Square brackets hold non-standard residues; d marks the D form. Peptide text beside a SMILES is read from it. * marks the point of attachment. X26 = COC1=CC(=O)N(C(=O)[C@@H](O*)C(C)C)[C@H]1Cc1ccccc1; NMeL = CN[C@@H](CC(C)C)C(=O)O; Hexanoyl = CCCCCC(=O)*

Columns and labels:
Test in all cases: NCI tumour cell line growth inhibition, 48 h
SK-MEL-2 = tested on: SK-MEL-2
LOX IMVI = tested on: LOX IMVI
ACHN = tested on: ACHN
CCRF-CEM = tested on: CCRF-CEM
MDA-MB-435 = tested on: MDA-MB-435
SK-OV-3 = tested on: SK-OV-3
SW-620 = tested on: SW-620
HT-29 = tested on: HT-29
A549 = tested on: A549
DU-145 = tested on: DU-145
NCI-H226 = tested on: NCI-H226
Hs-578T = tested on: Hs-578T
K562 = tested on: K562
UACC-62 = tested on: UACC-62
HL-60 = tested on: HL-60
OVCAR-5 = tested on: OVCAR-5
NCI/ADR-RES = tested on: NCI/ADR-RES
HOP-62 = tested on: HOP-62
M14 = tested on: M14

Compound	GI50 (SK-MEL-2)	GI50 (LOX IMVI)	GI50 (ACHN)	GI50 (CCRF-CEM)	GI50 (MDA-MB-435)	GI50 (SK-OV-3)	GI50 (SW-620)	GI50 (HT-29)	GI50 (A549)	GI50 (DU-145)	GI50 (NCI-H226)	GI50 (Hs-578T)	GI50 (K562)	GI50 (UACC-62)	GI50 (HL-60)	GI50 (OVCAR-5)	GI50 (NCI/ADR-RES)	GI50 (HOP-62)	GI50 (M14)
O=C1C(Cl)=CC2(C=C1Cl)CCNC1=C2C(=O)c2nc[nH]c2C1=O	17.3 µM (inactive)	20 µM (inactive)	> 100 µM (inactive)	30.8 µM (inactive)	18.2 µM (inactive)	> 100 µM (inactive)	26.9 µM (inactive)	29.6 µM (inactive)	> 100 µM (inactive)	> 100 µM (inactive)	75.2 µM (inactive)	> 100 µM (inactive)	29.4 µM (inactive)	18.3 µM (inactive)	24.4 µM (inactive)	> 100 µM (inactive)	> 100 µM (inactive)	> 100 µM (inactive)	39 µM (inactive)
C=C1C(=O)O[C@@H]2[C@@H]3O[C@@H](C[C@@H]13)[C@](C)(O)CC/C=C(\C)CCC[C@@H]2C	13.3 µM (inactive)	4.75 µM (inactive)	8.91 µM (inactive)	2.86 µM (inactive)	7.87 µM (inactive)	19.3 µM (inactive)	5.46 µM (inactive)	17.3 µM (inactive)	17.4 µM (inactive)	14.2 µM (inactive)	19.7 µM (inactive)	17.4 µM (inactive)	4.66 µM (inactive)	12.4 µM (inactive)	2.8 µM (inactive)	22 µM (inactive)	10.6 µM (inactive)	15.9 µM (inactive)	12.2 µM (inactive)
CCOC(=O)NC(Nc1ccc(OC(F)(F)F)cc1)(C(F)(F)F)C(F)(F)F	> 100 µM (inactive)	> 100 µM (inactive)	> 100 µM (inactive)	> 100 µM (inactive)	> 100 µM (inactive)	> 100 µM (inactive)	> 100 µM (inactive)	> 100 µM (inactive)	> 100 µM (inactive)	> 100 µM (inactive)	> 100 µM (inactive)	> 100 µM (inactive)	> 100 µM (inactive)	> 100 µM (inactive)	> 100 µM (inactive)	> 100 µM (inactive)	> 100 µM (inactive)	> 100 µM (inactive)	> 100 µM (inactive)
CC(=O)OC(CC(C)C)P1(=O)N(CC(C)(C)C)[C@@H]2CCCC[C@H]2N1CC(C)(C)C (stereo partly specified)	7.6 µM (inactive)	11.9 µM (inactive)	7.28 µM (inactive)	13.2 µM (inactive)	12.3 µM (inactive)	15.1 µM (inactive)	11.3 µM (inactive)	7.1 µM (inactive)	5.42 µM (inactive)	15.3 µM (inactive)	10.4 µM (inactive)	9.75 µM (inactive)	8.47 µM (inactive)	10.1 µM (inactive)	5.71 µM (inactive)	10.2 µM (inactive)	8.3 µM (inactive)	14.6 µM (inactive)	7.4 µM (inactive)
CCCCCC(=O)N[C@H](C(=O)N[C@H](C(=O)N(C)[C@@H](CC(C)C)C(=O)N1CCC[C@H]1C(=O)N1CCC[C@H]1C(=O)O[C@H](C(=O)N1C(=O)C=C(OC)[C@@H]1Cc1ccccc1)C(C)C)C(C)C)C(C)C (Hexanoyl-VV[NMeL]PP-X26)	> 100 µM (inactive)	> 100 µM (inactive)	> 100 µM (inactive)	42.9 µM (inactive)	47.9 µM (inactive)	> 100 µM (inactive)	> 100 µM (inactive)	> 100 µM (inactive)	18.1 µM (inactive)	> 43.8 µM (inactive)	> 100 µM (inactive)	> 88.3 µM (inactive)	10.3 µM (inactive)	> 100 µM (inactive)	1.46 µM (inactive)	> 100 µM (inactive)	> 100 µM (inactive)	> 100 µM (inactive)	> 33.3 µM (inactive)
CC(=O)C(=[N+]=[N-])C(=O)N1CCOC1=O	> 10 µM (inactive)	> 10 µM (inactive)	> 10 µM (inactive)	> 10 µM (inactive)	> 10 µM (inactive)	> 10 µM (inactive)	> 10 µM (inactive)	> 10 µM (inactive)	> 10 µM (inactive)	> 10 µM (inactive)	> 10 µM (inactive)	> 10 µM (inactive)	> 10 µM (inactive)	> 10 µM (inactive)	> 10 µM (inactive)	> 10 µM (inactive)	> 10 µM (inactive)	> 10 µM (inactive)	> 10 µM (inactive)
Cn1cc(C2NC(=O)c3ccccc3N2)c2ccccc21 (stereo unspecified)	2.02 µM (inactive)	0.877 µM (active)	1.75 µM (inactive)	0.413 µM (active)	0.0785 µM (active)	0.35 µM (active)	0.542 µM (active)	0.191 µM (active)	1.22 µM (inactive)	0.887 µM (active)	0.746 µM (active)	0.649 µM (active)	0.125 µM (active)	0.373 µM (active)	0.12 µM (active)	1.18 µM (inactive)	0.491 µM (active)	0.861 µM (active)	0.578 µM (active)
C[C@]12CC[C@H](O)C[C@@H]1CC[C@@H]1[C@@H]2CC[C@]2(C)[C@@H](C3=CC(=O)OC3)CC[C@]12O	3.33 µM (inactive)	2.59 µM (inactive)	0.687 µM (active)	0.76 µM (active)	3.03 µM (inactive)	3.21 µM (inactive)	3.51 µM (inactive)	3.44 µM (inactive)	0.627 µM (active)	1.49 µM (inactive)	11.2 µM (inactive)	4.21 µM (inactive)	3.97 µM (inactive)	3.55 µM (inactive)	2.88 µM (inactive)	4.25 µM (inactive)	2.07 µM (inactive)	1.6 µM (inactive)	3.45 µM (inactive)
CC1(C)OC2[C@@H](CO[C@@]3([C@H]4OC(C)(C)O[C@@H]4CO)OC(C)(C)O[C@@H]23)O1 (stereo partly specified)	> 100 µM (inactive)	> 100 µM (inactive)	> 100 µM (inactive)	> 100 µM (inactive)	> 100 µM (inactive)	> 100 µM (inactive)	> 100 µM (inactive)	> 100 µM (inactive)	> 100 µM (inactive)	> 100 µM (inactive)	> 100 µM (inactive)	> 100 µM (inactive)	> 100 µM (inactive)	> 100 µM (inactive)	> 100 µM (inactive)	> 100 µM (inactive)	> 100 µM (inactive)	> 100 µM (inactive)	> 100 µM (inactive)
COc1ccc(-c2cc(-c3ccccc3)n(C3OCC(OC(C)=O)C(OC(C)=O)C3OC(C)=O)c(=S)c2C#N)cc1 (stereo unspecified)	25 µM (inactive)	> 100 µM (inactive)	37.4 µM (inactive)	> 100 µM (inactive)	> 100 µM (inactive)	66.1 µM (inactive)	> 100 µM (inactive)	> 100 µM (inactive)	> 100 µM (inactive)	> 100 µM (inactive)	20 µM (inactive)	15.3 µM (inactive)	> 100 µM (inactive)	53 µM (inactive)	> 100 µM (inactive)	87.1 µM (inactive)	> 100 µM (inactive)	> 100 µM (inactive)	> 100 µM (inactive)
CC(C)(CO)CNc1cc(=O)[nH]c(N)n1	> 100 µM (inactive)	> 100 µM (inactive)	> 100 µM (inactive)	> 100 µM (inactive)	> 100 µM (inactive)	> 100 µM (inactive)	> 100 µM (inactive)	> 100 µM (inactive)	> 100 µM (inactive)	> 100 µM (inactive)	> 100 µM (inactive)	> 100 µM (inactive)	> 100 µM (inactive)	> 100 µM (inactive)	> 100 µM (inactive)	> 100 µM (inactive)	> 100 µM (inactive)	> 100 µM (inactive)	> 100 µM (inactive)
CCCCn1c(C)c2c(c1C)C(=O)N(CCN1CCN(c3ccccc3Cl)CC1)C2=O	20 µM (inactive)	16.5 µM (inactive)	38.1 µM (inactive)	29.3 µM (inactive)	32.4 µM (inactive)	21.6 µM (inactive)	37.5 µM (inactive)	16.4 µM (inactive)	38.2 µM (inactive)	36 µM (inactive)	36.9 µM (inactive)	> 100 µM (inactive)	31.6 µM (inactive)	32.4 µM (inactive)	22.1 µM (inactive)	61.8 µM (inactive)	46.7 µM (inactive)	29 µM (inactive)	21.9 µM (inactive)
N=C(N)SCc1cc(Cl)cc(Cl)c1O	18.2 µM (inactive)	18.5 µM (inactive)	19.5 µM (inactive)	13.7 µM (inactive)	19.7 µM (inactive)	36.1 µM (inactive)	20.7 µM (inactive)	16 µM (inactive)	20.7 µM (inactive)	17.6 µM (inactive)	20.3 µM (inactive)	20.4 µM (inactive)	19.8 µM (inactive)	17.3 µM (inactive)	3.21 µM (inactive)	16.3 µM (inactive)	26.2 µM (inactive)	18.8 µM (inactive)	16.6 µM (inactive)
c1nc(OCC2CCCCC2)c2nc[nH]c2n1	40.6 µM (inactive)	34.9 µM (inactive)	10.1 µM (inactive)	> 100 µM (inactive)	46.7 µM (inactive)	43.7 µM (inactive)	59.6 µM (inactive)	49.9 µM (inactive)	66.4 µM (inactive)	73.8 µM (inactive)	26.9 µM (inactive)	> 100 µM (inactive)	99.8 µM (inactive)	47.1 µM (inactive)	> 100 µM (inactive)	62.7 µM (inactive)	61.4 µM (inactive)	55.7 µM (inactive)	59.4 µM (inactive)
